# Data taken from patent US11053204B2, “Pyrimidinyloxy benzene derivatives as herbicides” (FMC Corporation, priority 2015, dated 2021).
# Legend:
# Assay in all cases: Test C postemergence, plant response rating
# Assay type in all cases: in vivo
# [1] = test system: ryegrass, Italian (Italian ryegrass, Lolium multiflorum); conditions: for Ryegrass, Italian plant response rating: scale 0 to 100 (0 no effect, 100 complete control)
# Summary of the method: (§1)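 After sowing in loam–sand blend or silt loam, pots were sprayed preemergence; separately grown 1- to 4-leaf plants were sprayed postemergence. Following 13 to 15 d under greenhouse conditions, injury was rated visually on a 0 to 100 scale.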
# [2] = test system: barnyardgrass (Echinochloa crus-galli); conditions: for Plant response rating, Barnyardgrass: scale 0 to 100; for Barnyardgrass plant response rating: scale 0 to 100 (0 no effect, 100 complete control)
# Summary of the method: as §1
# corn (Zea mays) = conditions: for Corn plant response rating: scale 0 to 100 (0 no effect, 100 complete control)
# Summary of the method: as §1
# [3] = test system: oilseed rape (Brassica napus); conditions: for Oilseed Rape plant response rating: scale 0 to 100 (0 no effect, 100 complete control)
# Summary of the method: as §1
# kochia (Kochia scoparia) = conditions: for Kochia plant response rating: scale 0 to 100 (0 no effect, 100 complete control)
# Summary of the method: as §1
# soybean (Glycine max) = conditions: for Soybean plant response rating: scale 0 to 100 (0 no effect, 100 complete control)
# Summary of the method: as §1
# [4] = test system: nutsedge, yellow (yellow nutsedge, Cyperus esculentus); conditions: for Nutsedge, Yellow plant response rating: scale 0 to 100 (0 no effect, 100 complete control)
# Summary of the method: as §1
# [5] = test system: ragweed (common ragweed, Ambrosia elatior); conditions: for Ragweed plant response rating: scale 0 to 100 (0 no effect, 100 complete control)
# Summary of the method: as §1
# [6] = test system: wheat (winter wheat, Triticum aestivum); conditions: for Wheat plant response rating: 125 g ai/ha, scale 0 to 100 (0 no effect, 100 complete control)
# Summary of the method: as §1
# [7] = test system: velvetleaf (Abutilon theophrasti); conditions: for Velvetleaf plant response rating: 125 g ai/ha, scale 0 to 100 (0 no effect, 100 complete control)
# Summary of the method: as §1
# [8] = test system: galium (catchweed bedstraw, Galium aparine); conditions: for Galium plant response rating: scale 0 to 100 (0 no effect, 100 complete control)
# Summary of the method: as §1
# [9] = test system: crabgrass, large (large crabgrass, Digitaria sanguinalis); conditions: for Crabgrass, Large plant response rating: scale 0 to 100 (0 no effect, 100 complete control)
# Summary of the method: as §1
# [10] = test system: lambsquarters (Chenopodium album); conditions: for Lambsquarters plant response rating: scale 0 to 100 (0 no effect, 100 complete control)
# Summary of the method: as §1
# [11] = test system: blackgrass (Alopecurus myosuroides); conditions: for Plant response rating, Blackgrass: scale 0 to 100; for Blackgrass plant response rating: scale 0 to 100 (0 no effect, 100 complete control)
# Summary of the method: as §1
# [12] = test system: oat, wild (wild oat Avena fatua); conditions: for Oat, Wild plant response rating: scale 0 to 100 (0 no effect, 100 complete control)
# Summary of the method: as §1
# [13] = test system: waterhemp (common waterhemp, Amaranthus rudis); conditions: for Waterhemp plant response rating: 125 g ai/ha, scale 0 to 100 (0 no effect, 100 complete control)
# Summary of the method: as §1
structure (smiles),measurement,setting,value
FC(F)(F)CCCCc1c(Cl)cccc1Oc1ncc(Cl)cn1 [Compound 137],"Plant response rating, Ryegrass, Italian","[1]; 16 g ai/ha, scale of 0 to 100",5
same,"Plant response rating, Ryegrass, Italian","[1]; 31 g ai/ha, scale 0 to 100",5
same,"Ryegrass, Italian plant response rating",[1]; 62 g ai/ha,5
same,"Ryegrass, Italian plant response rating",[1]; 125 g ai/ha,10
same,"Plant response rating, Barnyardgrass",[2]; 16 g ai/ha,10
same,"Plant response rating, Barnyardgrass",[2]; 31 g ai/ha,10
same,Barnyardgrass plant response rating,[2]; 62 g ai/ha,20
same,Barnyardgrass plant response rating,[2]; 125 g ai/ha,40
same,"Plant response rating, Corn","corn (Zea mays); 16 g ai/ha, scale of 0 to 100",10
same,"Plant response rating, Corn","corn (Zea mays); 31 g ai/ha, scale 0 to 100",15
same,Corn plant response rating,corn (Zea mays); 62 g ai/ha,15
same,Corn plant response rating,corn (Zea mays); 125 g ai/ha,25
same,"Plant response rating, Oilseed Rape","[3]; 16 g ai/ha, scale of 0 to 100",90
same,"Plant response rating, Oilseed Rape","[3]; 31 g ai/ha, scale 0 to 100",95
same,Oilseed Rape plant response rating,[3]; 62 g ai/ha,90
same,Oilseed Rape plant response rating,[3]; 125 g ai/ha,100
same,"Plant response rating, Kochia","kochia (Kochia scoparia); 16 g ai/ha, scale of 0 to 100",85
same,"Plant response rating, Kochia","kochia (Kochia scoparia); 31 g ai/ha, scale 0 to 100",90
same,Kochia plant response rating,kochia (Kochia scoparia); 62 g ai/ha,98
same,Kochia plant response rating,kochia (Kochia scoparia); 125 g ai/ha,98
same,"Plant response rating, Soybean","soybean (Glycine max); 16 g ai/ha, scale of 0 to 100",20
same,"Plant response rating, Soybean","soybean (Glycine max); 31 g ai/ha, scale 0 to 100",30
same,Soybean plant response rating,soybean (Glycine max); 62 g ai/ha,45
same,Soybean plant response rating,soybean (Glycine max); 125 g ai/ha,40
same,"Plant response rating, Nutsedge, Yellow","[4]; 16 g ai/ha, scale of 0 to 100",0
same,"Plant response rating, Nutsedge, Yellow","[4]; 31 g ai/ha, scale 0 to 100",0
same,"Nutsedge, Yellow plant response rating",[4]; 62 g ai/ha,10
same,"Nutsedge, Yellow plant response rating",[4]; 125 g ai/ha,5
same,"Plant response rating, Ragweed","[5]; 16 g ai/ha, scale of 0 to 100",20
same,"Plant response rating, Ragweed","[5]; 31 g ai/ha, scale 0 to 100",35
same,Ragweed plant response rating,[5]; 62 g ai/ha,30
same,Ragweed plant response rating,[5]; 125 g ai/ha,30
same,"Plant response rating, Wheat","[6]; 16 g ai/ha, scale of 0 to 100",5
same,"Plant response rating, Wheat","[6]; 31 g ai/ha, scale 0 to 100",5
same,Wheat plant response rating,[6],20
same,"Plant response rating, Velvetleaf","[7]; 16 g ai/ha, scale of 0 to 100",10
same,"Plant response rating, Velvetleaf","[7]; 31 g ai/ha, scale 0 to 100",15
same,Velvetleaf plant response rating,[7],70
same,"Plant response rating, Galium","[8]; 16 g ai/ha, scale of 0 to 100",55
same,"Plant response rating, Galium","[8]; 31 g ai/ha, scale 0 to 100",70
same,Galium plant response rating,[8]; 62 g ai/ha,75
same,Galium plant response rating,[8]; 125 g ai/ha,85
same,"Plant response rating, Crabgrass, Large","[9]; 16 g ai/ha, scale of 0 to 100",10
same,"Plant response rating, Crabgrass, Large","[9]; 31 g ai/ha, scale 0 to 100",20
same,"Crabgrass, Large plant response rating",[9]; 62 g ai/ha,40
same,"Crabgrass, Large plant response rating",[9]; 125 g ai/ha,70
same,"Plant response rating, Lambsquarters","[10]; 16 g ai/ha, scale of 0 to 100",55
same,"Plant response rating, Lambsquarters","[10]; 31 g ai/ha, scale 0 to 100",75
same,Lambsquarters plant response rating,[10]; 62 g ai/ha,85
same,Lambsquarters plant response rating,[10]; 125 g ai/ha,90
same,"Plant response rating, Blackgrass",[11]; 16 g ai/ha,5
same,"Plant response rating, Blackgrass",[11]; 31 g ai/ha,10
same,Blackgrass plant response rating,[11]; 62 g ai/ha,15
same,Blackgrass plant response rating,[11]; 125 g ai/ha,40
same,"Plant response rating, Oat, Wild","[12]; 16 g ai/ha, scale of 0 to 100",5
same,"Plant response rating, Oat, Wild","[12]; 31 g ai/ha, scale 0 to 100",10
same,"Oat, Wild plant response rating",[12]; 62 g ai/ha,10
same,"Oat, Wild plant response rating",[12]; 125 g ai/ha,10
same,"Plant response rating, Waterhemp","[13]; 16 g ai/ha, scale of 0 to 100",40
same,"Plant response rating, Waterhemp","[13]; 31 g ai/ha, scale 0 to 100",60
same,Waterhemp plant response rating,[13],75
O=C(CCCC(F)(F)F)c1c(Cl)cccc1Oc1ncc(Cl)cn1 [Compound 143],"Plant response rating, Ryegrass, Italian","[1]; 16 g ai/ha, scale of 0 to 100",5
same,"Plant response rating, Ryegrass, Italian","[1]; 31 g ai/ha, scale 0 to 100",10
same,"Ryegrass, Italian plant response rating",[1]; 62 g ai/ha,10
same,"Ryegrass, Italian plant response rating",[1]; 125 g ai/ha,20
same,"Plant response rating, Barnyardgrass",[2]; 16 g ai/ha,5
same,"Plant response rating, Barnyardgrass",[2]; 31 g ai/ha,10
same,Barnyardgrass plant response rating,[2]; 62 g ai/ha,10
same,Barnyardgrass plant response rating,[2]; 125 g ai/ha,20
same,"Plant response rating, Corn","corn (Zea mays); 16 g ai/ha, scale of 0 to 100",15
same,"Plant response rating, Corn","corn (Zea mays); 31 g ai/ha, scale 0 to 100",20
same,Corn plant response rating,corn (Zea mays); 62 g ai/ha,20
same,Corn plant response rating,corn (Zea mays); 125 g ai/ha,30
same,"Plant response rating, Oilseed Rape","[3]; 16 g ai/ha, scale of 0 to 100",85
same,"Plant response rating, Oilseed Rape","[3]; 31 g ai/ha, scale 0 to 100",80
same,Oilseed Rape plant response rating,[3]; 62 g ai/ha,95
same,Oilseed Rape plant response rating,[3]; 125 g ai/ha,100
same,"Plant response rating, Kochia","kochia (Kochia scoparia); 16 g ai/ha, scale of 0 to 100",98
same,"Plant response rating, Kochia","kochia (Kochia scoparia); 31 g ai/ha, scale 0 to 100",100
same,Kochia plant response rating,kochia (Kochia scoparia); 62 g ai/ha,100
same,Kochia plant response rating,kochia (Kochia scoparia); 125 g ai/ha,100
same,"Plant response rating, Soybean","soybean (Glycine max); 16 g ai/ha, scale of 0 to 100",30
same,"Plant response rating, Soybean","soybean (Glycine max); 31 g ai/ha, scale 0 to 100",40
same,Soybean plant response rating,soybean (Glycine max); 62 g ai/ha,55
same,Soybean plant response rating,soybean (Glycine max); 125 g ai/ha,65
same,"Plant response rating, Nutsedge, Yellow","[4]; 16 g ai/ha, scale of 0 to 100",0
same,"Plant response rating, Nutsedge, Yellow","[4]; 31 g ai/ha, scale 0 to 100",5
same,"Nutsedge, Yellow plant response rating",[4]; 62 g ai/ha,5
same,"Nutsedge, Yellow plant response rating",[4]; 125 g ai/ha,25
same,"Plant response rating, Ragweed","[5]; 16 g ai/ha, scale of 0 to 100",20
same,"Plant response rating, Ragweed","[5]; 31 g ai/ha, scale 0 to 100",50
same,Ragweed plant response rating,[5]; 62 g ai/ha,55
same,Ragweed plant response rating,[5]; 125 g ai/ha,55
same,"Plant response rating, Wheat","[6]; 16 g ai/ha, scale of 0 to 100",5
same,"Plant response rating, Wheat","[6]; 31 g ai/ha, scale 0 to 100",10
same,Wheat plant response rating,[6],30
same,"Plant response rating, Velvetleaf","[7]; 16 g ai/ha, scale of 0 to 100",35
same,"Plant response rating, Velvetleaf","[7]; 31 g ai/ha, scale 0 to 100",55
same,Velvetleaf plant response rating,[7],70
same,"Plant response rating, Galium","[8]; 16 g ai/ha, scale of 0 to 100",75
same,"Plant response rating, Galium","[8]; 31 g ai/ha, scale 0 to 100",85
same,Galium plant response rating,[8]; 62 g ai/ha,80
same,Galium plant response rating,[8]; 125 g ai/ha,95
same,"Plant response rating, Crabgrass, Large","[9]; 16 g ai/ha, scale of 0 to 100",5
same,"Plant response rating, Crabgrass, Large","[9]; 31 g ai/ha, scale 0 to 100",5
same,"Crabgrass, Large plant response rating",[9]; 62 g ai/ha,15
same,"Crabgrass, Large plant response rating",[9]; 125 g ai/ha,30
same,"Plant response rating, Lambsquarters","[10]; 16 g ai/ha, scale of 0 to 100",75
same,"Plant response rating, Lambsquarters","[10]; 31 g ai/ha, scale 0 to 100",90
same,Lambsquarters plant response rating,[10]; 62 g ai/ha,90
same,Lambsquarters plant response rating,[10]; 125 g ai/ha,95
same,"Plant response rating, Blackgrass",[11]; 16 g ai/ha,10
same,"Plant response rating, Blackgrass",[11]; 31 g ai/ha,15
same,Blackgrass plant response rating,[11]; 62 g ai/ha,15
same,Blackgrass plant response rating,[11]; 125 g ai/ha,40
same,"Plant response rating, Oat, Wild","[12]; 16 g ai/ha, scale of 0 to 100",10
same,"Plant response rating, Oat, Wild","[12]; 31 g ai/ha, scale 0 to 100",10
same,"Oat, Wild plant response rating",[12]; 62 g ai/ha,10
same,"Oat, Wild plant response rating",[12]; 125 g ai/ha,20
same,"Plant response rating, Waterhemp","[13]; 16 g ai/ha, scale of 0 to 100",75
same,"Plant response rating, Waterhemp","[13]; 31 g ai/ha, scale 0 to 100",80
same,Waterhemp plant response rating,[13],90
